The values that follow come from ChEMBL document CHEMBL1131686, “Synthesis and biological activities of topoisomerase I inhibitors, 6-N-amino analogues of NB-506” (Bioorg Med Chem Lett, 1999).

Bounds are passed on as bounds.

The test system of experiment [1] is P388. The experiment can be described thus: Effect on the formation of protein-DNA complex in P388 cells K+/SDS method. It is filed as functional, Mus musculus.
For experiment [2], the target named is Epidermal growth factor receptor (Homo sapiens, UniProt P00533). The experiment in a line: In vitro activity against Epidermal growth factor receptor (using poly(Glu4Tyr1) as a substrate).
Chain of Epidermal growth factor receptor (P00533 whole entry): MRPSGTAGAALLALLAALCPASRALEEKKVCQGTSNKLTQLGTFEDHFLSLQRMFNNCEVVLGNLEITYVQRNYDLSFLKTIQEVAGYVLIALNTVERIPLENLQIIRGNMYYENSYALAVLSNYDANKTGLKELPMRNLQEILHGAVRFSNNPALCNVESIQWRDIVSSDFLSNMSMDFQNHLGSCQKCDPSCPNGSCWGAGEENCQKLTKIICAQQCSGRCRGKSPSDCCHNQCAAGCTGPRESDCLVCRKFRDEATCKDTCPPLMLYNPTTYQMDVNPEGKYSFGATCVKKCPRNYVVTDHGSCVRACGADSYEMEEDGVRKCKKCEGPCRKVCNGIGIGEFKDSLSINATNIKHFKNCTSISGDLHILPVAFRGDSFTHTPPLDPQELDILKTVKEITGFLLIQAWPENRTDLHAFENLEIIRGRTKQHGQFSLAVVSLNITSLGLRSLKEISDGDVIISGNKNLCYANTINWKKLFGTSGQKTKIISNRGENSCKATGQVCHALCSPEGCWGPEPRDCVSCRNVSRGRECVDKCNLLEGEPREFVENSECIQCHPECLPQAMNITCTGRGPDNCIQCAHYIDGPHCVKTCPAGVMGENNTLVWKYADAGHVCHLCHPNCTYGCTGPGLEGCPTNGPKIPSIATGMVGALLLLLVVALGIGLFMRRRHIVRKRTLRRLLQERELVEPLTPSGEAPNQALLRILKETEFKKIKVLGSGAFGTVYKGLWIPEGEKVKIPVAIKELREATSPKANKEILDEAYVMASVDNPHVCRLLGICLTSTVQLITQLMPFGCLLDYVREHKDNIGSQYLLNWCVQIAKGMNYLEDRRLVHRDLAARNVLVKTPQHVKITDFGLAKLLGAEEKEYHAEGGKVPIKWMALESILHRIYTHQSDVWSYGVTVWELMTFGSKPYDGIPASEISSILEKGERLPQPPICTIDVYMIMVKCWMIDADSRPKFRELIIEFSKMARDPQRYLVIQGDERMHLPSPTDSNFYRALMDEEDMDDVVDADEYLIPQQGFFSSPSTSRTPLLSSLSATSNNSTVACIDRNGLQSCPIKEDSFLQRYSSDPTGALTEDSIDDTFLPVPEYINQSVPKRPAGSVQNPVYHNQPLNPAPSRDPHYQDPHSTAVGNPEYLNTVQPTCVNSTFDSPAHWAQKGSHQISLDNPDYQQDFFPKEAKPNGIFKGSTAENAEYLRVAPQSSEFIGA
The target of another experiment is T1, DNA topoisomerase 1 (Homo sapiens, UniProt P11387).
T1 sequence (P11387 whole entry): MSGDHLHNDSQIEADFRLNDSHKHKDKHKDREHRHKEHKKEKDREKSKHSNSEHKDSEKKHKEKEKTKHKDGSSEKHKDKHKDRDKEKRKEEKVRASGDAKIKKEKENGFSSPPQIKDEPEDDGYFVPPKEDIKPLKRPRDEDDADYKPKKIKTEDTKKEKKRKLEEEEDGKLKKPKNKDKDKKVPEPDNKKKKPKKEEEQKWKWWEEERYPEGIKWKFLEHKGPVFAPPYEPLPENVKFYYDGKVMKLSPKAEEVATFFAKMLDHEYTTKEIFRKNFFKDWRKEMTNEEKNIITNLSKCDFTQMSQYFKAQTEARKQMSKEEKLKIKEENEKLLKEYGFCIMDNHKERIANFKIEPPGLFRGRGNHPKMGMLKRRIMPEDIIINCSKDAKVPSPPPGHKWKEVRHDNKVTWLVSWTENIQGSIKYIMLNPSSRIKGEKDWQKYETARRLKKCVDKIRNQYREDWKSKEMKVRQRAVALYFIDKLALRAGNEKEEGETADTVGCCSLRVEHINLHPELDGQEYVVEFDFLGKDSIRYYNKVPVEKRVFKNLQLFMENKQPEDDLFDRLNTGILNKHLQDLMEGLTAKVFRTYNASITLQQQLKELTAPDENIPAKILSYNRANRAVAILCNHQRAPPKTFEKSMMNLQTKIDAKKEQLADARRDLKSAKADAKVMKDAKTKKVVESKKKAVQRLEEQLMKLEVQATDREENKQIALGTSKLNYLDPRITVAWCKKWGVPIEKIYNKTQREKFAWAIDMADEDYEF
The experiment in a line: In vitro activity against topoisomerase-1 mediated cleavage of supercoiled pBR322 plasmid DNA. It is filed as functional.

Experiment [3] concerns the target Protein kinase C alpha type (Homo sapiens, UniProt P17252). The experiment can be described thus: In vitro activity evaluated against protein kinase C (using histone II-As as a substrate).
The subject of experiment [4] is P388. The experiment in a line: In vitro cytotoxicity (CTX) against murine leukemia cells (P388) using colorimetric tetrazolium-formazan method. The experiment is classed as functional, cell-based. Conditions: Mus musculus.
The target in the next experiment is DNA topoisomerase II (Homo sapiens, UniProt P11388+Q02880). The experiment in a line: In vitro activity against topoisomerase-2 mediated cleavage of supercoiled pBR322 plasmid DNA. It is filed as functional.
The next experiment concerns MKN-45. The experiment in a line: In vitro cytotoxicity (CTX) against human stomach cancer cells (MKN-45) using sulforhodamine B dye-staining method. The experiment is classed as functional, cell-based. In general terms: In SRB staining, fixed cells bind dye roughly in proportion to their protein.

On to `O=C1NC(=O)c2c1c1c3cccc(O)c3[nH]c1c1c2c2cccc(O)c2n1C1OC(CO)C(O)C(O)C1O` (stereo unspecified), for which, in the experiment on P388 [1], the EC200 turned out to be 2 µM. For the same molecule, the IC50 in experiment [2] is 90000 nM; in experiment [3], 3800 nM; with P388 [4], 44 nM; in the experiment on MKN-45 it was 540 nM. For the same molecule, the EC50 on DNA topoisomerase 1 was 3000 nM; at DNA topoisomerase II, > 50000 nM.

Molecule `CCC(=O)NN1C(=O)c2c(c3c4cccc(O)c4n(C4OC(CO)C(O)C(O)C4O)c3c3[nH]c4c(O)cccc4c23)C1=O` (stereo unspecified) registered an EC200 in the experiment on P388 [1] of 6 µM. The IC50 in experiment [2] was > 200000 nM; in experiment [3], 36000 nM; in the experiment on P388 [4], 45 nM; in the experiment on MKN-45, 190 nM. Further, the EC50 was 480 nM on DNA topoisomerase 1 and > 50000 nM at DNA topoisomerase II.

For the molecule `O=C1c2c(c3c4cccc(O)c4n(C4OC(CO)C(O)C(O)C4O)c3c3[nH]c4c(O)cccc4c23)C(=O)N1NCc1cccc(O)c1` (stereo unspecified), in the experiment on P388 [1], the EC200 was 0.26 µM. The IC50 is > 200000 nM in experiment [2], 13000 nM in experiment [3], 7 nM with P388 [4] and 12 nM in the experiment with MKN-45. The EC50 on DNA topoisomerase 1 is 300 nM; on DNA topoisomerase II it was > 50000 nM.

In the case of `Cc1ccc(S(=O)(=O)NN2C(=O)c3c(c4c5cccc(O)c5n(C5OC(CO)C(O)C(O)C5O)c4c4[nH]c5c(O)cccc5c34)C2=O)cc1` (stereo unspecified), the EC200 with P388 [1] was >10 µM. Besides, the IC50 was > 200000 nM in experiment [2] and 12000 nM in experiment [3]. Also, the EC50 is 270 nM at DNA topoisomerase 1 and > 50000 nM at DNA topoisomerase II.

In turn, `CNN1C(=O)c2c(c3c4cccc(O)c4n(C4OC(CO)C(O)C(O)C4O)c3c3[nH]c4c(O)cccc4c23)C1=O` (stereo unspecified) came in with an EC200 in the experiment with P388 [1] of 2.5 µM. Also, the IC50 in experiment [2] came to 100000 nM; in experiment [3], 55000 nM; in the experiment on P388 [4], 75 nM; with MKN-45, 130 nM. Further, the EC50 at DNA topoisomerase 1 was 350 nM; on DNA topoisomerase II, > 50000 nM.

As to `O=C(O)c1ccc(NN2C(=O)c3c(c4c5cccc(O)c5n(C5OC(CO)C(O)C(O)C5O)c4c4[nH]c5c(O)cccc5c34)C2=O)cc1` (stereo unspecified), the EC200 in the experiment with P388 [1] was >50 µM. The IC50 is 90000 nM in experiment [2], 23000 nM in experiment [3], 6500 nM with P388 [4] and > 10000 nM in the experiment with MKN-45. The EC50 was 160 nM on DNA topoisomerase 1 and > 50000 nM on DNA topoisomerase II.

On to `NN1C(=O)c2c(c3c4cccc(O)c4n(C4OC(CO)C(O)C(O)C4O)c3c3[nH]c4c(O)cccc4c23)C1=O` (stereo unspecified), for which, in the experiment on P388 [1], the EC200 was 0.5 µM. For the same molecule, the IC50 in experiment [2] was > 200000 nM; in experiment [3], > 200000 nM; in the experiment with P388 [4] it was 40 nM; in the experiment with MKN-45, 130 nM. Also, the EC50 on DNA topoisomerase 1 was 270 nM; on DNA topoisomerase II, > 50000 nM.

In the case of `O=C(Nc1ccccc1)NN1C(=O)c2c(c3c4cccc(O)c4n(C4OC(CO)C(O)C(O)C4O)c3c3[nH]c4c(O)cccc4c23)C1=O` (stereo unspecified), the EC200 with P388 [1] is >10 µM. For the same molecule, the IC50 is 95000 nM in experiment [2], 6800 nM in experiment [3], 250 nM in the experiment on P388 [4] and 250 nM in the experiment on MKN-45. At DNA topoisomerase 1, this molecule yielded an EC50 of 250 nM.

With `O=C(NN1C(=O)c2c(c3c4cccc(O)c4n(C4OC(CO)C(O)C(O)C4O)c3c3[nH]c4c(O)cccc4c23)C1=O)c1ccccc1` (stereo unspecified), the EC200 in the experiment with P388 [1] was 10 µM. The IC50 is > 200000 nM in experiment [2], 35000 nM in experiment [3], 12 nM with P388 [4] and 48 nM with MKN-45. The EC50 on DNA topoisomerase 1 came to 52 nM.

In the experiment with P388 [1], `O=C1NC(=O)c2c1c1c3cccc(O)c3[nH]c1c1[nH]c3c(O)cccc3c21` displayed an EC200 of 3 µM. Moreover, the IC50 in experiment [2] stood at 29000 nM; in experiment [3], 40000 nM; in the experiment with P388 [4], 2000 nM. The EC50 on DNA topoisomerase 1 is > 3000 nM; on DNA topoisomerase II, > 50000 nM.

Consider `CN(C)CC(=O)NN1C(=O)c2c(c3c4cccc(O)c4n(C4OC(CO)C(O)C(O)C4O)c3c3[nH]c4c(O)cccc4c23)C1=O` (stereo unspecified), for which the EC200 with P388 [1] is >10 µM. The IC50 is > 200000 nM in experiment [2], > 200000 nM in experiment [3], 260 nM in the experiment with P388 [4] and 460 nM in the experiment on MKN-45. At DNA topoisomerase 1, this molecule registered an EC50 of 170 nM.

For orientation: IC50 means the concentration that inhibits the measured activity by half. Read a low IC50 as greater potency. As usually defined, the EC50 is the concentration that produces a half-maximal response. Lower therefore signals greater potency.
